Experimental data reported in patent US12251387B2, “Substituted quinoxalines and benzo[c][1,2,5]oxadiazoles as DNA-PK inhibitors” (Vertex Pharmaceuticals Incorporated, priority 2013, dated 2025).

What follows are molecules tested against DNA-PK (Homo sapiens, UniProt P78527) (assay: DNA-PK Inhibition Assay (standard radiometric kinase assay, 33P-ATP, peptide substrate)). Settings: radiometric assay, approximately 6 nM DNA-PK, 100 μM ATP, 45 min; fit to competitive tight-binding inhibition; read-out: Ki for the inhibition of DNA-PK.
Format: biochemical
Protocol: Compounds were screened for their ability to inhibit DNA-PK kinase using a standard radiometric assay. Briefly, in this kinase assay the transfer of the terminal ^33P-phosphate in ^33P-ATP to a peptide substrate is interrogated. The assay was carried out in 384-well plates to a final volume of 50 μL per well containing approximately 6 nM DNA-PK, 50 mM HEPES (pH 7.5), 10 mM MgCl2, 25 mM NaCl, 0.01% BSA, 1 mM DTT, 10 μg/mL sheared double-stranded DNA (obtained from Sigma), 0.8 mg/mL DNA-PK peptide (Glu-Pro-Pro-Leu-Ser-Gln-Glu-Ala-Phe-Ala-Asp-Leu-Trp-Lys-Lys-Lys, obtained from American Peptide), and 100 μM ATP. Accordingly, compounds of the invention were dissolved in DMSO to make 10 mM initial stock solutions. Serial dilutions in DMSO were then made to obtain the final solutions for the assay. A 0.75 μL aliquot of DMSO or inhibitor in DMSO was added to each well, followed by the addition of ATP substrate solution containing ^33P-ATP (obtained from Perkin Elmer). The reaction was started by the addition of DNA-PK, peptide and ds-DNA. After 45 min, the reaction was quenched with 25 μL of 5% phosphoric acid. The reaction mixture was transferred to MultiScreen HTS 384-well PH plates (obtained from Millipore), allowed to bind for one hour, and washed three times with 1% phosphoric acid. Following the addition of 50 μL of Ultima Gold™ high efficiency scintillant (obtained from Perkin Elmer), the samples were counted in a Packard TopCount NXT Microplate Scintillation and Luminescence Counter (Packard BioScience). The Ki values were calculated using Microsoft Excel Solver macros to fit the data to the kinetic model for competitive tight-binding inhibition.

Ki, < 100 nM:
Fc1cccnc1N[C@H]1CC[C@@H](Oc2cc(N3CCOCC3)cc3nccnc23)CC1 [Compound 591]
CN1CCN(CCOc2cc(N[C@H]3CC[C@@H](Oc4cc(N5CCOCC5)cc5nccnc45)CC3)ncn2)CC1 [Compound 562]
CN1CC[C@@H](Nc2ncnc(N[C@H]3CC[C@@H](Oc4cc(N5CCOCC5)cc5nccnc45)CC3)c2F)C1 [Compound 327]
Cc1cc2nc(N[C@H]3CC[C@@H](Oc4cc(N5CCOCC5)cc5nccnc45)CC3)cc(=O)n2o1 [Compound 596]
CC(C)(C)OC(=O)N1CCn2cnc(N[C@H]3CC[C@@H](Oc4cc(N5CCOCC5)cc5nccnc45)CC3)c2C1 [Compound 296]
Cc1ncnc(N[C@H]2CC[C@@H](Oc3cc(N4CCOCC4)cc4nccnc34)CC2)c1C [Compound 491]
OC1(c2cnc(N[C@H]3CC[C@@H](Oc4cc(N5CCOCC5)cc5nccnc45)CC3)nc2)COC1 [Compound 610]
Fc1cncnc1N[C@H]1CC[C@@H](Oc2cc(N3CCOCC3)cc3nccnc23)CC1 [Compound 531]
Cn1nnnc1-c1cnc(N[C@H]2CC[C@@H](Oc3cc(N4CCOCC4)cc4nccnc34)CC2)nc1 [Compound 459]
Cc1ncc(-c2cc(N[C@H]3CC[C@@H](Oc4cc(N5CCOCC5)cc5nccnc45)CC3)ncn2)cn1 [Compound 426]
CN1CCc2c(N[C@H]3CC[C@@H](Oc4cc(N5CCOCC5)cc5nccnc45)CC3)ncnc21 [Compound 473]
c1nc(N[C@H]2CC[C@@H](Oc3cc(N4CCOCC4)cc4nccnc34)CC2)cc(C2CC2)n1 [Compound 650]
Cc1nc(C)c(C)c(N[C@H]2CC[C@@H](Oc3cc(N4CCOCC4)cc4nccnc34)CC2)n1 [Compound 436]
Cn1nc(N[C@H]2CC[C@@H](Oc3cc(N4CCOCC4)cc4nccnc34)CC2)ccc1=O [Compound 578]
Cn1nc(N[C@H]2CC[C@@H](Oc3cc(N4CCOCC4)cc4nccnc34)CC2)c2ccccc21 [Compound 298]
CN1CCN(CCOc2ccc(N[C@H]3CC[C@@H](Oc4cc(N5CCOCC5)cc5nccnc45)CC3)nc2)CC1 [Compound 655]
CCCc1nc(C)cc(N[C@H]2CC[C@@H](Oc3cc(N4CCOCC4)cc4nccnc34)CC2)n1 [Compound 618]
c1cnc(NC[C@H]2CC[C@@H](Oc3cc(N4CCOCC4)cc4nccnc34)CC2)nc1 [Compound 348]
c1cnc2c(O[C@H]3CC[C@@H](Nc4ccc(C5CCC5)nn4)CC3)cc(N3CCOCC3)cc2n1 [Compound 601]
CCOc1cccc(N[C@H]2CC[C@@H](Oc3cc(N4CCOCC4)cc4nccnc34)CC2)n1 [Compound 588]
Clc1nc(N[C@H]2CC[C@@H](Oc3cc(N4CCOCC4)cc4nccnc34)CC2)nc2[nH]ccc12 [Compound 501]
N#Cc1cncnc1N[C@H]1CC[C@@H](Oc2cc(N3CCOCC3)cc3nccnc23)CC1 [Compound 422]
CNC(=O)c1cc(N[C@H]2CC[C@@H](Oc3cc(C4=CCOCC4)cc4nccnc34)CC2)ncn1 [Compound 321]
c1cc(-c2nnco2)nc(N[C@H]2CC[C@@H](Oc3cc(N4CCOCC4)cc4nccnc34)CC2)n1 [Compound 461]
c1cnc2c(O[C@H]3CC[C@@H](Nc4ncc(OCCCN5CCOCC5)cn4)CC3)cc(N3CCOCC3)cc2n1 [Compound 526]
Cc1cnc(N[C@H]2CC[C@@H](Oc3cc(N4CCOCC4)cc4nccnc34)CC2)c(C)c1 [Compound 595]
CN1CCC(c2cnc(N[C@H]3CC[C@@H](Oc4cc(N5CCOCC5)cc5nccnc45)CC3)nc2)C1 (some centres unmarked) [Compound 568]
Cc1nccc(N(C)[C@H]2CC[C@@H](Oc3cc(N4CCOCC4)cc4nccnc34)CC2)n1 [Compound 399]
CNc1nc(N[C@H]2CC[C@@H](Oc3cc(N4CCOCC4)cc4nccnc34)CC2)cc(=O)[nH]1 [Compound 400]
c1cc(N[C@H]2CC[C@@H](Oc3cc(N4CCOCC4)cc4nccnc34)CC2)n2nccc2c1 [Compound 580]
COCCNc1ncnc(N[C@H]2CC[C@@H](Oc3cc(N4CCOCC4)cc4nccnc34)CC2)c1F [Compound 382]
CN1CCC[C@H]1CNc1ncnc(N[C@H]2CC[C@@H](Oc3cc(N4CCOCC4)cc4nccnc34)CC2)c1F [Compound 359]
CNC(=O)c1cnc(N[C@H]2CC[C@@H](Oc3cc(N4CCOCC4)cc4nccnc34)CC2)nc1C [Compound 287]
CN1CCN(C(=O)c2cnc(N[C@H]3CC[C@@H](Oc4cc(N5CCOCC5)cc5nccnc45)CC3)nc2)CC1 [Compound 337]
CC(C)(C)NC(=O)N[C@H]1CC[C@@H](Oc2cc(N3CCOCC3)cc3nccnc23)CC1 [Compound 425]
COCCOc1ccc(N[C@H]2CC[C@@H](Oc3cc(N4CCOCC4)cc4nccnc34)CC2)nc1 [Compound 625]
CN1CCN(c2cnc(N[C@H]3CC[C@@H](Oc4cc(N5CCOCC5)cc5nccnc45)CC3)nc2)CC1 [Compound 579]
c1cc(N[C@H]2CC[C@@H](Oc3cc(N4CCOCC4)cc4nccnc34)CC2)ncn1 [Compound 486]
Cc1cc(N[C@H]2CC[C@@H](Oc3cc(N4CCOCC4)cc4nccnc34)CC2)n2cnnc2n1 [Compound 500]
COc1cncc(NC[C@H]2CC[C@@H](Oc3cc(N4CCOCC4)cc4nccnc34)CC2)c1 [Compound 347]
Cc1ccc(N[C@H]2CC[C@@H](Oc3cc(N4CCOCC4)cc4nccnc34)CC2)cn1 [Compound 444]
CC(C)Nc1cnc(N[C@H]2CC[C@@H](Oc3cc(N4CCOCC4)cc4nccnc34)CC2)nc1 [Compound 152]
CCOc1cnc(N[C@H]2CC[C@@H](Oc3cc(N4CCOCC4)cc4nccnc34)CC2)cn1 [Compound 334]
COCCOc1cnc(N[C@H]2CC[C@@H](Oc3cc(N4CCOCC4)cc4nccnc34)CC2)nc1 [Compound 612]
Cc1cn(C)c(N[C@H]2CC[C@@H](Oc3cc(N4CCOCC4)cc4nccnc34)CC2)n1 [Compound 646]
Cn1nc(N[C@H]2CC[C@@H](Oc3cc(N4CCOCC4)cc4nccnc34)CC2)c2cccnc21 [Compound 329]
CNC(=O)c1ccnc(N[C@H]2CC[C@@H](Oc3cc(N4CC5CC(C4)O5)cc4nccnc34)CC2)n1 [Compound 317]
c1cnc2c(O[C@H]3CC[C@@H](Nc4ncc(CN5CCOCC5)cn4)CC3)cc(N3CCOCC3)cc2n1 [Compound 530]
O=C(O)c1ccc(N[C@H]2CC[C@@H](Oc3cc(N4CCOCC4)cc4nccnc34)CC2)cn1 [Compound 393]
Cn1ccc(N[C@H]2CC[C@@H](Oc3cc(N4CCOCC4)cc4nccnc34)CC2)n1 [Compound 649]
CNC(=O)c1cccc(N[C@H]2CC[C@@H](Oc3cc(N4CCOCC4)cc4nccnc34)CC2)n1 [Compound 406]
Clc1ccnc(N[C@H]2CC[C@@H](Oc3cc(N4CCOCC4)cc4nccnc34)CC2)n1 [Compound 532]
Cc1nnc2c(N[C@H]3CC[C@@H](Oc4cc(N5CCOCC5)cc5nccnc45)CC3)nccn12 [Compound 310]
CN(C)c1ncnc(N[C@H]2CC[C@@H](Oc3cc(N4CCOCC4)cc4nccnc34)CC2)c1F [Compound 512]
c1cnc2c(O[C@H]3CC[C@@H](Nc4ncnc5[nH]ccc45)CC3)cc(N3CCOCC3)cc2n1 [Compound 515]
Oc1ncc(F)c(N[C@H]2CC[C@@H](Oc3cc(N4CCOCC4)cc4nccnc34)CC2)n1 [Compound 395]
Cc1ncncc1N[C@H]1CC[C@@H](Oc2cc(N3CCOCC3)cc3nccnc23)CC1 [Compound 448]
c1cnc2c(O[C@H]3CC[C@@H](Nc4ccn5nccc5n4)CC3)cc(N3CCOCC3)cc2n1 [Compound 498]
Cc1nc2c(c(N[C@H]3CC[C@@H](Oc4cc(N5CCOCC5)cc5nccnc45)CC3)n1)OCC2 [Compound 403]
